Drawing on BindingDB's records for patent US11884671 (AstraZeneca, 2024), this text covers IC50 for four molecules.

pIC50: −log10 of the molar value. Some results are limits rather than exact numbers.

The target of assay [1] is T1, Aurora kinase A (Homo sapiens, UniProt O14965).
T1 sequence (O14965 whole entry): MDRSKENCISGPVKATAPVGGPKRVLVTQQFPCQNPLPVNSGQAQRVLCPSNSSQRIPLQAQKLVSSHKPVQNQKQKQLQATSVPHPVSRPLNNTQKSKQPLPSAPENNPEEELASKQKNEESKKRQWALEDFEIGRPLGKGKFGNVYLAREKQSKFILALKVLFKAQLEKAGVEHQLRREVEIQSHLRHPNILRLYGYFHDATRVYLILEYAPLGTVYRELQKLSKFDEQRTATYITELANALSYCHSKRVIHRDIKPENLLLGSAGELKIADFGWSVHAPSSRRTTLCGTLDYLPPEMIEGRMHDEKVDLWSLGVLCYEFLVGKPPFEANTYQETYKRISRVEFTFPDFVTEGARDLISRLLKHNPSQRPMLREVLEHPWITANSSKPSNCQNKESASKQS

Assay [2] addresses Tyrosine-protein kinase JAK1 (Homo sapiens, UniProt P23458). The experiment in a line: Enzyme Assay.
Procedure: JAK1: The 2×JAK/Tyr 06 (ThermoFisher Scientific proprietary) mixture was prepared in 50 mM HEPES pH 6.5, 0.01% BRIJ-35, 10 mM MgCl2, 1 mM EGTA, 0.02% NaN3.
The target of assay [3] is Tyrosine-protein kinase JAK2 (Homo sapiens, UniProt O60674). The experiment in a line: Enzyme Assay.
Procedure: JAK2: The 2×JAK2/Tyr 06 (ThermoFisher Scientific proprietary) mixture was prepared in 50 mM HEPES pH 7.5, 0.01% BRIJ-35, 10 mM MgCl2, 1 mM EGTA.
The target of assay [4] is T2, Tyrosine-protein kinase JAK3 (Homo sapiens, UniProt P52333).
T2 sequence (P52333 whole entry): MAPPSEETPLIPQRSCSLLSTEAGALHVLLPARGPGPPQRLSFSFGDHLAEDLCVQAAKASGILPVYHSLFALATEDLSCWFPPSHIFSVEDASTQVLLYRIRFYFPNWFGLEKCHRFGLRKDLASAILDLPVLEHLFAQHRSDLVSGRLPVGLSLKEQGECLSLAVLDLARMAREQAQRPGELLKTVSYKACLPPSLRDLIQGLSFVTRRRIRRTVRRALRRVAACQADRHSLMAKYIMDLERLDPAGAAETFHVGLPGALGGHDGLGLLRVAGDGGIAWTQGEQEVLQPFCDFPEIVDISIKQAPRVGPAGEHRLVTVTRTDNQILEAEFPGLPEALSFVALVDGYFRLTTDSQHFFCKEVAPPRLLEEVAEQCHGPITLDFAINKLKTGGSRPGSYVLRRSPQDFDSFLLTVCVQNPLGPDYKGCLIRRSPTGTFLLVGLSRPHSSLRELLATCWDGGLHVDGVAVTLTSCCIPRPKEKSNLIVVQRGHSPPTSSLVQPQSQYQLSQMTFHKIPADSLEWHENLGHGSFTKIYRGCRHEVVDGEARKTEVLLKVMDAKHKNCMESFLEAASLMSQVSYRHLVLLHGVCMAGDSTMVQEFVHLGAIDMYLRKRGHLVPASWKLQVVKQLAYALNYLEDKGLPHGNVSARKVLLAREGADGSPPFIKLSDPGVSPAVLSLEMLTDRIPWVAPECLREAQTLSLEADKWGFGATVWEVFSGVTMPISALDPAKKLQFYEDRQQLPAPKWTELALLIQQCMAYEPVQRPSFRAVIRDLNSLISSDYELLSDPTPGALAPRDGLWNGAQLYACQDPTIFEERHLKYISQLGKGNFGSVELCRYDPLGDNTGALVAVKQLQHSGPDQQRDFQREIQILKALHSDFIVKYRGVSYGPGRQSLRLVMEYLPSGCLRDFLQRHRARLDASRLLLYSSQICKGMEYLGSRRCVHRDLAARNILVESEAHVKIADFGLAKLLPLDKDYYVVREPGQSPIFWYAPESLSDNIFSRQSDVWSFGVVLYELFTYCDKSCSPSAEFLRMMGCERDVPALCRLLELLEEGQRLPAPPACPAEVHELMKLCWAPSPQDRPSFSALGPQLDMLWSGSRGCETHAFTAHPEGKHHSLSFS
The experiment in a line: Enzyme Assay.
Procedure: JAK3: The 2×JAK3/Tyr 06 (ThermoFisher Scientific proprietary) mixture was prepared in 50 mM HEPES pH 7.5. 0.01% BRIJ-35, 10 mM MgCl2, 1 mM EGTA.

Assay [5] has as its target T3, Dual specificity protein kinase TTK (Homo sapiens, UniProt P33981).
T3 sequence (P33981 whole entry): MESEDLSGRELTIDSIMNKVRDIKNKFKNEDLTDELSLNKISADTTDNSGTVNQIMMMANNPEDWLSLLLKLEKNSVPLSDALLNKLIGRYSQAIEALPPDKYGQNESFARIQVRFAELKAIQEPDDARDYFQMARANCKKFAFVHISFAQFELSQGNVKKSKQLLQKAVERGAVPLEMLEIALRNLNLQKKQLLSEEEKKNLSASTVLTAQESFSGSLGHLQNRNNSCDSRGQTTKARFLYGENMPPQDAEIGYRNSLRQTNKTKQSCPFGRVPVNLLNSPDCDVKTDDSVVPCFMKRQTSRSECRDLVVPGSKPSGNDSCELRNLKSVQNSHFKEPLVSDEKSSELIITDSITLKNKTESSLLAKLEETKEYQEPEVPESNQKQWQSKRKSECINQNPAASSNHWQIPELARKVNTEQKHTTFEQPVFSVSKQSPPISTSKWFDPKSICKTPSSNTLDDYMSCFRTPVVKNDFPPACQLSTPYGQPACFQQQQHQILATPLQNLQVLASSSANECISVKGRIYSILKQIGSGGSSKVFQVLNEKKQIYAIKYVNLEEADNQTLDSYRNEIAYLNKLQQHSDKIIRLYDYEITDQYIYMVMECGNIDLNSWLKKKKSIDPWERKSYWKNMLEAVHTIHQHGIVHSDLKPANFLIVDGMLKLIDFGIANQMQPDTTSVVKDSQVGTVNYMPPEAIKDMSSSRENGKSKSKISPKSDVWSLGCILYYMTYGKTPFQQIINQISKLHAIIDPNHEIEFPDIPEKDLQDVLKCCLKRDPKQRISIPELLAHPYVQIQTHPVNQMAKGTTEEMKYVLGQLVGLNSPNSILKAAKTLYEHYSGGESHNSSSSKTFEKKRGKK
The experiment in a line: TTK Enzyme Assay. How it is done: The inhibitory activity of compounds against TTK was determined in a LanthaScreen Eu Kinase Binding assay run by ThermoFisher Scientific as part of their SelectScreen Biochemical Kinase Profiling Service. The LanthaScreen Eu Kinase Binding assay format uses binding of an Alexa Fluor conjugate or tracer to a kinase, which is detected by addition of a Eu-labeled anti-tag antibody. […] Plates were then read using a fluorescence plate reader.

Assay [6] concerns the target Aurora kinase B (Homo sapiens, UniProt Q96GD4). The experiment in a line: Enzyme Assay.
Procedure: Aurora B (AurB): The 2×AURKB (Aurora B)/Ser/Thr 01 (ThermoFisher Scientific proprietary) mixture was prepared in 50 mM HEPES pH 7.5, 0.01% BRIJ-35, 10 mM MgCl2, 1 mM EGTA.

Sequence of Tyrosine-protein kinase JAK1 (P23458 whole entry): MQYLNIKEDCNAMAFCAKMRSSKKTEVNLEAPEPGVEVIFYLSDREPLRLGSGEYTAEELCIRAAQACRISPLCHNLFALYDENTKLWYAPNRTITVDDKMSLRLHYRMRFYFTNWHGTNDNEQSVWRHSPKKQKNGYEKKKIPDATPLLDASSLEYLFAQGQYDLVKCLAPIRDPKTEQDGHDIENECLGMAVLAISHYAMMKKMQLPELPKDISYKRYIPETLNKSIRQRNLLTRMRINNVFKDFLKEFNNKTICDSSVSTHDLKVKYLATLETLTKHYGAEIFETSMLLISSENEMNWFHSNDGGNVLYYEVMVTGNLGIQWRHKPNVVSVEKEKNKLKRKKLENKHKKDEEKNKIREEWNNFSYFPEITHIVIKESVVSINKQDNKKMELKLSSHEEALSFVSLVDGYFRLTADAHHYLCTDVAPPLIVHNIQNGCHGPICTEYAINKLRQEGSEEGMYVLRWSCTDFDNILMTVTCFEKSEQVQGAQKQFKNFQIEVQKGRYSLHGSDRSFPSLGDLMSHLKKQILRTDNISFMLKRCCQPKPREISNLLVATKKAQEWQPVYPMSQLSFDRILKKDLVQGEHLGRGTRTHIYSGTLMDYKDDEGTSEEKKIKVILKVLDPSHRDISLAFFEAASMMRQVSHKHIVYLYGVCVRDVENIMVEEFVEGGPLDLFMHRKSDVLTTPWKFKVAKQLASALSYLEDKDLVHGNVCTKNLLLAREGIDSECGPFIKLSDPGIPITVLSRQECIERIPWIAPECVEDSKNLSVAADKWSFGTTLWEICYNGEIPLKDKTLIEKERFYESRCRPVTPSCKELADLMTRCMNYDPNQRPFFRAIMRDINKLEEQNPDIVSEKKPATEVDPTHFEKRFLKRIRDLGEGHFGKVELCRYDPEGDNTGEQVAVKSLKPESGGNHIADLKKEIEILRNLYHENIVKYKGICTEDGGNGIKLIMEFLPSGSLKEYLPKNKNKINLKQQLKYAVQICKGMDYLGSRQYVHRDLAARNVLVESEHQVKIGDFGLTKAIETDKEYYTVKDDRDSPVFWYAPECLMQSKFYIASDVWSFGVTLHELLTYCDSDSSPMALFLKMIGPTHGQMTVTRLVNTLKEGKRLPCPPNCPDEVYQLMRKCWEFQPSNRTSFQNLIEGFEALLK
Sequence of Tyrosine-protein kinase JAK2 (O60674 whole entry): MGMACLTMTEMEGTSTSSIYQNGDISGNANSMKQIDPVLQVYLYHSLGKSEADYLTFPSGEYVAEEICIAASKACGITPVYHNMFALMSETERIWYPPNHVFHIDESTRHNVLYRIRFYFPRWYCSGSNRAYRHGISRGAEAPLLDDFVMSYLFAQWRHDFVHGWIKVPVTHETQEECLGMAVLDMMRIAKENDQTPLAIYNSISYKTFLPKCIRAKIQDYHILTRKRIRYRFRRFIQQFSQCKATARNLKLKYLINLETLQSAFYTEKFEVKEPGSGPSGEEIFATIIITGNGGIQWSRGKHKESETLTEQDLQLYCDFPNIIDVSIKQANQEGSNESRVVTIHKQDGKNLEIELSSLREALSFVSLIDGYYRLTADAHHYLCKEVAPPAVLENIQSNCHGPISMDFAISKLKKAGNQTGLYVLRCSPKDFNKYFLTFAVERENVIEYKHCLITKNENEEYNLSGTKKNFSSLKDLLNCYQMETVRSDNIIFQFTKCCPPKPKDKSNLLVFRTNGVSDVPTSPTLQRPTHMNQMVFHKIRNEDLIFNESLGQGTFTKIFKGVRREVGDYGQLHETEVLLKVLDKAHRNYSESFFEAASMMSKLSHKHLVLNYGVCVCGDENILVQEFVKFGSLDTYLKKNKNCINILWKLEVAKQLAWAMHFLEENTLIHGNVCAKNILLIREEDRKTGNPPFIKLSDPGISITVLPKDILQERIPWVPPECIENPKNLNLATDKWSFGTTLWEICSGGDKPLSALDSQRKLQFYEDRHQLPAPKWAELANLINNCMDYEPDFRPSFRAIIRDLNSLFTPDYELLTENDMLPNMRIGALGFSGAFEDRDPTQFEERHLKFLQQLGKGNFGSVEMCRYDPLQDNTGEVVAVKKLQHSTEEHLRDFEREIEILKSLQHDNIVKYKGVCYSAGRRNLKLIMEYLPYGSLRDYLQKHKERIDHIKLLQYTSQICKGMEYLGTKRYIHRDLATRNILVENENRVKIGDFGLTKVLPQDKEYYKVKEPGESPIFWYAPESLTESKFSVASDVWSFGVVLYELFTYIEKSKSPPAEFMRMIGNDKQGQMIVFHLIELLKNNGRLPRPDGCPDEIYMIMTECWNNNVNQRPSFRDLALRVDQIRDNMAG
Sequence of Aurora kinase B (Q96GD4 whole entry): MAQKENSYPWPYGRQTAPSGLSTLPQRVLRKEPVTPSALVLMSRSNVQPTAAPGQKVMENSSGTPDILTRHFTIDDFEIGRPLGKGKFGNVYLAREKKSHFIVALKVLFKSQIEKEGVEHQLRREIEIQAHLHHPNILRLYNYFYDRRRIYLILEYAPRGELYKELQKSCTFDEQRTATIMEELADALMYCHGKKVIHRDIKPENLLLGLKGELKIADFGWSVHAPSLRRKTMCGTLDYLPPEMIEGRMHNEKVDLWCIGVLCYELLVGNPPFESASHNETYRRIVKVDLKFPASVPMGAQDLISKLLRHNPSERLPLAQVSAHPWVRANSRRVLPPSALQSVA

The pIC50 is the IC50 on a negative log10 scale, so that one unit is a factor of ten. With `Cc1cc2ncccc2cc1Nc1ncc2c(n1)n([C@H]1CC[C@@](C)(O)CC1)c(=O)n2C` [US11884671, Example 14], the pIC50 is less than 5.00 in assay [1]; less than 5.00 in assay [2]; less than 5.00 in assay [3]; less than 5.00 in assay [4]; 7.00 in assay [5]; less than 5.00 in assay [6].
With `Cc1cc2nnccc2cc1Nc1ncc2c(n1)n([C@H]1CC[C@@](C)(O)CC1)c(=O)n2C` [US11884671, Example 16], the negative logarithm of the IC50 (pIC50) in assay [1] is less than 5.00; in assay [2] it was less than 5.00; in assay [3] it was less than 5.00; in assay [4] it was less than 5.00; in assay [5] it was 6.70; in assay [6] it was less than 5.00.
Take `Cc1cc2nnccc2cc1Nc1ncc2c(n1)n([C@H]1CC[C@](C)(O)CC1)c(=O)n2C` [US11884671, Example 17]: the pIC50 in assay [1] is less than 5.00; in assay [2] it was less than 5.00; in assay [3], less than 5.00; in assay [4] it was less than 5.00; in assay [5], 6.50; in assay [6], less than 5.00.
`Cc1cc2ncccc2cc1Nc1ncc2c(n1)n([C@H]1CC[C@](C)(O)CC1)c(=O)n2C` [US11884671, Example 15]: the pIC50 in assay [1] was less than 5.00; in assay [2], less than 5.00; in assay [3] it was less than 5.00; in assay [4], less than 5.00; in assay [5] it was 6.60; in assay [6] it was less than 5.00.
